Measured values reported in ChEMBL document CHEMBL6074686 (Eur J Med Chem, 2025).
pIC50: −log10 of the molar value. Active and inactive are the calls of the source. The calls are words filed in the database; no cut-off is given here.

Tests used:
[1] = tested on: SK-OV-3; experiment: Antitumor activity against human SK-OV-3 cells xenografted xenografted in female BALB/c nude mouse assessed as downregulation of CD-31 expression level in tumor at 10 mg/kg, […] via tail vein once every 2 to 3 days by immunohistochemistry analysis; assay type: functional, organism-based; conditions: time 2-3 day
[2] = tested on: MCF7; experiment: Inhibition of cell migration in human MCF7 cells assessed as wound closure ratio at 10 nM incubated for 24 hrs by wound healing assay (reference value: 100%); assay type: functional; parameters: scale not given: the % may be the effect or the level left
[3] = tested on: MCF7; experiment: Inhibition of cell migration in human MCF7 cells assessed as wound closure at 10 nM incubated for 24 hrs by wound healing assay (reference value: 44.5 +/- 8.8%); assay type: functional; parameters: scale not given: the % may be the effect or the level left
[4] = tested on: SK-OV-3; experiment: Inhibition of cell migration in human SK-OV-3 cells assessed as wound closure ratio at 3.125 nM incubated for 24 hrs by wound healing assay (reference value: 100%); assay type: functional; parameters: scale not given: the % may be the effect or the level left
[5] = tested on: SK-OV-3; experiment: Induction of apoptosis in human SK-OV-3 cells assessed as downregulation of cleaved-PARP expression at 100 nM incubated for 24 hrs by Western blotting analysis; assay type: functional, cell-based
[6] = tested on: MCF7; experiment: Inhibition of cell migration in human MCF7 cells assessed as area of migrated cells at 50 nM incubated for 24 hrs by crystal violet staining based inverted microscopic analysis (reference value: 18.5 +/- 0.3 mm^3); assay type: functional
[7] = tested on: SK-OV-3; experiment: Antitumor activity against human SK-OV-3 cells xenografted xenografted in female BALB/c nude mouse assessed as upregulation of cleaved PARP expression level in tumor at 5 to 10 mg/kg, […] via tail vein once every 2 to 3 days by immunohistochemistry analysis; assay type: functional, organism-based; conditions: dose 5-10 mg/kg, time 2-3 day
[8] = Toxicity in female BALB/c nude mouse xenografted with human SK-OV-3 cells assessed as drug tolerance by measuring loose stools at 30 mg/kg, administered via tail vein for 5 days and measured daily; assay type: organism-based, Feces; conditions: in vivo, iv, 120 h, time 5 day
[9] = tested on: SK-OV-3; experiment: Induction of cell cycle arrest in human SK-OV-3 cells assessed as increase in G2/M phase cells at 2.5 nM incubated for 24 hrs PI staining based flow cytometric analysis (reference value: 24.6 +/- 2.0%); assay type: functional
[10] = Toxicity in female BALB/c nude mouse xenografted with human SK-OV-3 cells assessed as pathological changes in kidney at 5 to 10 mg/kg, […] via tail vein once every 2 to 3 days by H and E staining based analysis; assay type: organism-based; conditions: in vivo, dose lower 5 mg/kg, time lower 2 day, dose upper 10 mg/kg, time upper 3 day
[11] = tested on: MCF7; experiment: Inhibition of cell migration in human MCF7 cells assessed as wound closure at 20 nM incubated for 24 hrs by wound healing assay (reference value: 44.5 +/- 8.8%); assay type: functional; parameters: scale not given: the % may be the effect or the level left
[12] = tested on: SK-OV-3; experiment: Inhibition of cell migration in human SK-OV-3 cells assessed as area of migrated cells at 20 nM incubated for 24 hrs by crystal violet staining based inverted microscopic analysis (reference value: 30.1 +/- 1.3 mm^3); assay type: functional
[13] = tested on: MCF7; experiment: Induction of apoptosis in human MCF7 cells assessed as upregulation of Bax expression at 100 nM incubated for 24 hrs by Western blotting analysis; assay type: functional, cell-based
[14] = tested on: SK-OV-3; experiment: Inhibition of cell migration in human SK-OV-3 cells assessed as ratio of migrated cells at 20 nM incubated for 24 hrs by Transwell assay (reference value: 100 %); assay type: functional; parameters: scale not given: the % may be the effect or the level left
[15] = Toxicity in female BALB/c nude mouse xenografted with human SK-OV-3 cells assessed as pathological changes in liver at 5 to 10 mg/kg, […] via tail vein once every 2 to 3 days by H and E staining based analysis; assay type: organism-based; conditions: in vivo, dose lower 5 mg/kg, time lower 2 day, dose upper 10 mg/kg, time upper 3 day
[16] = tested on: A549; experiment: Induction of cell cycle arrest in human A549 cells assessed as accumulation of cells at G2/M phase at 40 nM incubated for 24 hrs by PI staining based flow cytometric analysis relative to control; assay type: functional
[17] = Toxicity in female BALB/c nude mouse xenografted with human SK-OV-3 cells assessed as drug tolerance by measuring body weight loss at 30 mg/kg, administered via tail vein for 5 days and measured daily; assay type: organism-based; conditions: in vivo, iv, 120 h, time 5 day
[18] = tested on: SK-OV-3; experiment: Inhibition of cell migration in human SK-OV-3 cells assessed as wound closure ratio at 50 nM incubated for 24 hrs by wound healing assay (reference value: 100%); assay type: functional; parameters: scale not given: the % may be the effect or the level left
[19] = tested on: SK-OV-3; experiment: Inhibition of cell migration in human SK-OV-3 cells assessed as area of migrated cells at 2.5 nM incubated for 24 hrs by crystal violet staining based inverted microscopic analysis (reference value: 30.1 +/- 1.3 mm^3); assay type: functional
[20] = tested on: SK-OV-3; experiment: Inhibition of cell migration in human SK-OV-3 cells assessed as reduction in wound closure at 12.5 nM incubated for 24 hrs by wound healing assay (reference value: 21.8 +/- 7.6%); assay type: functional; conditions: SK-OV-3, 24 h, values are per cent of control
[21] = tested on: SK-OV-3; experiment: Inhibition of cell migration in human SK-OV-3 cells assessed as reduction in wound closure at 25 nM incubated for 24 hrs by wound healing assay (reference value: 21.8 +/- 7.6%); assay type: functional; conditions: SK-OV-3, 24 h, values are per cent of control
[22] = tested on: SK-OV-3; experiment: Antitumor activity against human SK-OV-3 cells assessed as reduction in cell viability incubated for 72 hrs by CCK8 assay; assay type: functional, cell-based; conditions: SK-OV-3, 72 h
[23] = tested on: MCF7; experiment: Induction of apoptosis in human MCF7 cells assessed as upregulation of cleaved-PARP expression at 25 to 50 nM incubated for 24 hrs by Western blotting analysis; assay type: functional, cell-based; conditions: dose 25-50 nM
[24] = tested on: SK-OV-3; experiment: Induction of apoptosis in human SK-OV-3 cells assessed as downregulation of Bcl-2 expression incubated for 24 hrs by Western blotting analysis; assay type: functional, cell-based
[25] = tested on: SK-OV-3; experiment: Induction of apoptosis in human SK-OV-3 cells assessed as upregulation of Bax expression at 100 nM incubated for 24 hrs by Western blotting analysis; assay type: functional, cell-based
[26] = tested on: SK-OV-3; experiment: Induction of apoptosis in human SK-OV-3 cells assessed as upregulation of cleaved-caspase-3 expression incubated for 24 hrs by Western blotting analysis; assay type: functional, cell-based; conditions: dose 25-100 nM
[27] = tested on: SK-OV-3; experiment: Inhibition of cell migration in human SK-OV-3 cells assessed as reduction in wound closure at 3.125 nM incubated for 24 hrs by wound healing assay (reference value: 21.8 +/- 7.6%); assay type: functional; conditions: SK-OV-3, 24 h, values are per cent of control
[28] = tested on: SK-OV-3; experiment: Induction of cell cycle arrest in human SK-OV-3 cells assessed as increase in G2/M phase cells at 20 nM incubated for 24 hrs PI staining based flow cytometric analysis (reference value: 24.6 +/- 2.0%); assay type: functional
[29] = tested on: MCF7; experiment: Induction of apoptosis in human MCF7 cells assessed as upregulation of Bcl-2 expression at 100 nM incubated for 24 hrs by Western blotting analysis; assay type: functional, cell-based
[30] = tested on: MCF7; experiment: Inhibition of cell migration in human MCF7 cells assessed as wound closure ratio at 5 nM incubated for 24 hrs by wound healing assay (reference value: 100%); assay type: functional; parameters: scale not given: the % may be the effect or the level left
[31] = Toxicity in female BALB/c nude mouse xenografted with human SK-OV-3 cells assessed as effect on physiological status at 15 mg/kg, administered via tail vein for 5 days and measured daily; assay type: organism-based; conditions: in vivo, iv, 120 h, time 5 day
[32] = Toxicity in female BALB/c nude mouse xenografted with human SK-OV-3 cells assessed as pathological changes in heart at 5 to 10 mg/kg, […] via tail vein once every 2 to 3 days by H and E staining based analysis; assay type: organism-based; conditions: in vivo, dose lower 5 mg/kg, time lower 2 day, dose upper 10 mg/kg, time upper 3 day
[33] = tested on: MCF7; experiment: Inhibition of cell migration in human MCF7 cells assessed as wound closure at 5 nM incubated for 24 hrs by wound healing assay (reference value: 44.5 +/- 8.8%); assay type: functional; parameters: scale not given: the % may be the effect or the level left

Question: With `CNc1nc(N2CCCc3cc(OC)ccc32)c2cc(F)ccc2n1` as the compound, how does the Activity [1] read?
Answer: Active

Question: What about the Activity [2] of the same compound?
Answer: 104.4%

Question: What about the Activity [3] of the same compound?
Answer: 46.5%

Question: What about the Activity [4] of the same compound?
Answer: 104.5%

Question: What about the Activity [5] of the same compound?
Answer: inactive

Question: And the Activity [6]?
Answer: 2.2 mm3

Question: And the Activity [7]?
Answer: Active

Question: What about the Activity [8] of the same compound?
Answer: Toxic

Question: What about the Activity [9] of the same compound?
Answer: 25.3%

Question: And the Activity [10]?
Answer: Non-toxic

Question: And the Activity [11]?
Answer: 32.2%

Question: What about the Activity [12] of the same compound?
Answer: 3.6 mm3

Question: What about the Activity [13] of the same compound?
Answer: Active

Question: And the Activity [14]?
Answer: 11.9%

Question: What about the Activity [15] of the same compound?
Answer: Non-toxic

Question: And the Activity [16]?
Answer: 88.8%

Question: What about the Activity [17] of the same compound?
Answer: Toxic

Question: And the Activity [18]?
Answer: 22.7%

Question: And the Activity [19]?
Answer: 18.9 mm3

Question: What about the response, % of control at 0.0125 µM [20] of the same compound?
Answer: 14.3%

Question: And the response, % of control at 0.025 µM [21]?
Answer: 11.2%

Question: And the pIC50 [22]?
Answer: 9.10

Question: What about the Activity [23] of the same compound?
Answer: Active

Question: And the Activity [24]?
Answer: Active

Question: And the Activity [25]?
Answer: Active

Question: And the Activity [26]?
Answer: Dose-dependent-effect

Question: And the response, % of control at 0.003125 µM [27]?
Answer: 22.8%

Question: What about the Activity [28] of the same compound?
Answer: 90.6%

Question: And the Activity [29]?
Answer: inactive

Question: What about the Activity [30] of the same compound?
Answer: 97.3%

Question: What about the Activity [31] of the same compound?
Answer: Toxic

Question: What about the Activity [32] of the same compound?
Answer: Non-toxic

Question: What about the Activity [33] of the same compound?
Answer: 43.3%
